# Activity calls are given as the source filed them. The rule behind the calls is not given here.
# Assays:
# [1] = tested on: Staphylococcus epidermidis; test: Antibacterial activity against Staphylococcus epidermidis ATCC 12228 incubated for 18 hrs by serial two-fold dilution method; type: functional
# [2] = tested on: Staphylococcus aureus; test: Potency index, ratio of griseofamine A MIC to test compound MIC for antibacterial activity against methicillin resistant Staphylococcus aureus ATCC 33592; type: functional
# [3] = tested on: Staphylococcus aureus; test: Potency index, ratio of vancomycin MIC to test compound MIC for antibacterial activity against methicillin resistant Staphylococcus aureus ATCC 33592; type: functional
# [4] = tested on: Staphylococcus aureus; test: Potency index, ratio of vancomycin MIC to test compound MIC for antibacterial activity against methicillin resistant Staphylococcus aureus ATCC 43300; type: functional
# [5] = tested on: Staphylococcus aureus; test: Bactericidal activity against Staphylococcus aureus ATCC 29213 incubated for 18 to 24 hrs; type: functional; conditions: time 18-24 hrs
# [6] = tested on: Staphylococcus aureus; test: Bactericidal activity against methicillin resistant Staphylococcus aureus ATCC 33592 incubated for 18 to 24 hrs; type: functional; conditions: time 18-24 hrs
# [7] = tested on: Staphylococcus aureus; test: Inhibition of biofilm formation in methicillin resistant Staphylococcus aureus ATCC 33592 assessed as decrease in biofilm survival rate incubated for 48 hrs by crystal violet staining based optical microscopic analysis; type: functional, organism-based
# [8] = Hemolytic activity in rabbit RBC assessed as hemolysis rate at 23.5 ug/ml incubated for 1 hr by microplate reader assay; type: toxicity, cell-based, Oryctolagus cuniculus, Erythrocyte; conditions: rabbit red blood cells (erythrocytes), at 23.5 µg/mL, read-out: Activity
# [9] = Cytotoxicity against mouse MLg cells assessed as survival rate at 23.5 ug/ml incubated for 24 hrs by MTS method; type: toxicity, cell-based; conditions: at 23.5 µg/mL, read-out: Survival
# [10] = AUC(0 to t) in ICR mouse at 5 mg/kg, po; type: ADME, organism-based; conditions: in vivo
# [11] = MRT(0 to t) in ICR mouse at 5 mg/kg, po; type: ADME, organism-based; conditions: in vivo
# [12] = MRT(0 to infinity) in ICR mouse at 5 mg/kg, po; type: ADME, organism-based; conditions: in vivo
# [13] = Bioavailability in ICR mouse at 5 mg/kg, po; type: ADME, organism-based; conditions: in vivo
# [14] = Cmax in ICR mouse at 1 mg/kg, iv; type: ADME, organism-based; conditions: in vivo
# [15] = tested on: Staphylococcus aureus; test: Antibacterial activity against methicillin resistant Staphylococcus aureus ATCC 43300 infected in ICR mouse systemic infection model at 2.5 mg/kg, ip pretreated with bacteria for 30 mins followed by compound addition and measured for 7 days; type: functional; conditions: time 7 day
# [16] = tested on: Staphylococcus aureus; test: Antibacterial activity against methicillin resistant Staphylococcus aureus ATCC 43300 infected in ICR mouse systemic infection model assessed as reduction in bacterial burden in lung at 2.5 mg/kg, ip pretreated with bacteria for 30 mins followed by compound addition and measured for 7 days; type: functional, organism-based; conditions: time 7.0 day
# [17] = tested on: Staphylococcus aureus; test: Antibacterial activity against methicillin resistant Staphylococcus aureus ATCC 43300 infected in ICR mouse systemic infection model assessed as reduction in bacterial burden in kidney at 2.5 mg/kg, ip pretreated with bacteria for 30 mins followed by compound addition and measured for 7 days; type: functional, organism-based; conditions: time 7.0 day
# [18] = tested on: Staphylococcus aureus; test: Antibacterial activity against methicillin resistant Staphylococcus aureus ATCC 33592 assessed as leakage of cellular components at MIC incubated for 1 to 6 hrs by SEM analysis; type: functional, organism-based; conditions: time 1-6 hrs
compound,measurement,setting,value
C/C(O)=C1\C(=O)[C@@H]2Cc3c([nH]c4ccccc34)[C@@H](c3ccc(-c4cc(F)cc(F)c4)cc3)N2C1=O,MIC,[1],0.125 µg/mL
same,Ratio,[2],128
same,Ratio,[3],8
same,Ratio,[4],8
same,MBC,[5],1 µg/mL
same,MBC,[6],0.5 µg/mL
same,inhibition,[7],Dose-Dependent Effect
same,"hemolysis at 1 h, 23.5 ug/ml",[8],< 5%
same,"viability at 24 h, 23.5 ug/ml",[9],> 80%
same,AUC(0-t),[10],2450 ng·h/mL
same,MRT last,[11],10.6 h
same,MRT inf,[12],12.7 h
same,bioavailability,[13],11.6%
same,Cmax,[14],748 ng/mL
same,Activity,[15],75%
same,Activity,[16],Active
same,Activity,[17],Active
same,Activity,[18],Active

# Reference: ChEMBL document CHEMBL5608208, “Design, synthesis of griseofamine A derivatives and development of potent antibacterial agents against MRSA” (Eur J Med Chem, 2024)
